In US12419305B2, “Antimicrobial compositions” (Firmenich SA, priority 2018, dated 2025):
Like-named read-outs stand apart in the source and are kept apart here.

Test system: E. coli ATCC 10536
Experiment: BCT test (bacterial contact time), 45 s, log reduction / effect fraction; CI by Compusyn
Type: cell-based, Escherichia coli
Conditions: for log reduction at 0.2 % strength: dose 0.200 % w/v; for log reduction at 0.125 % strength: dose 0.125 % w/v; for log reduction at 0.15 % strength: dose 0.150 % w/v; for log reduction at […] strength: dose […] w/v
Protocol: E. coli, S. aureus, P. aeruginosa, and S. enterica: Separate suspensions of the E. coli ATCC 10536 strain, S. aureus ATCC 6538 strain, Pseudomonas aeruginosa ATCC 15442 strain, and the Salmonella enterica ATCC 10708 strain were prepared as follows: Stock cultures (stored at −80° C.) were thawed and sub-cultured onto Tryptic Soy Agar (TSA) agar plate media, and incubated at 37° C. for 24 h to obtain single colonies. Single colonies of the primary cultures were streaked onto TSA plates and incubated at 37° for 24 h to generate secondary cultures. Single colonies of secondary cultures picked and used to inoculate into 50 mL of TSB broth. The inoculated TSB broth was incubated at 37° C. at 180 rpm for 18 h. Aliquots (0.5 ml) of the 18 h culture were inoculated into 50 ml of fresh TSB broth, and incubated at 37° C. at 180 rpm for 2-3 hours. When the OD600 nm value of the broth reached 1-2, cells were harvested by centrifugation at 5000 rpm for 10 min, and then resuspended in fresh TSB broth at a concentration of 1-5×10^8 CFU/mL. These suspensions were used as the bacterial suspensions for the BCT test.
BCT Test: Test compositions at a range of concentrations (either combinations of more than one perfume ingredient, and comparative compositions comprising the single perfume ingredients) were prepared in ethanol. Five replicates of each test composition were added into 96-well microtiter plates (120 μl per well), with row B containing control compositions containing the ethanol solution alone. 120 μl of bacterial cell suspensions at a concentration of approximately 1×10^8 bacteria per mL (as prepared above) were added to each well of the microtiter plate. The bacterial suspensions were incubated with the test solutions for 45, 60, or 120 seconds. Following the incubation of the bacterial suspensions with the test solutions, serial dilutions of the bacterial suspensions were generated (three serial 1:10 dilutions, followed by 17 serial 1:2 dilutions), in multiwell microtiter plates.
Each plate was sealed and incubated at 37° C. under agitation (180 rpm). After incubation, the turbidity of the wells (OD600 nm) was determined using a Tecan microplate reader. Turbid wells were regarded as positive growth, due to the presence of viable cells. The total number of viable cells (log CFU) for each sample was calculated. And the log reduction for each test composition at the final concentration (dose) was calculated against the control sample of the ethanol solution.
Determination of Synergy via the Combination Index (CI): The CI was calculated using Compusyn software (ComboSyn, Inc., as created by Dr. Dorothy Chou in 2005), according to the manufacturer's instructions. The concentration of each test composition (combinations of more than one perfume ingredient, and comparative compositions comprising the single perfume ingredients used to generate the combination) and their corresponding effect fraction was entered, and the corresponding CI calculated.
When the calculated CI values were less than 0.9, the combination of perfume ingredients was regarded as having synergistic effect. When the calculated CI was between 1.0 a 0.9, the combination of perfume ingredients was regarded as having an additive effect. When the calculated CI was greater than 1.0, the combination of perfume ingredients was regarded as having an antagonistic effect.

[1] = Escherichia coli, ATCC10536, 45 s, 45 s, in 20% EtOH
[2] = Escherichia coli, ATCC10536, 45 s, dose 0.050 % w/v, 45 s, in 20% EtOH
[3] = Escherichia coli, ATCC10536, 45 s, dose 0.05% w/v, contact 45 s, 20% EtOH
[4] = Escherichia coli, ATCC10536, 45 s, dose 0.060 % w/v, 45 s, in 20% EtOH
[5] = Escherichia coli, ATCC10536, 45 s, dose 0.06% w/v, contact 45 s, 20% EtOH
[6] = Escherichia coli, ATCC10536, 45 s, dose 0.070 % w/v, 45 s, in 20% EtOH
[7] = Escherichia coli, ATCC10536, 45 s, dose 0.07% w/v, contact 45 s, 20% EtOH
[8] = Escherichia coli, ATCC10536, 45 s, dose 0.080 % w/v, 45 s, in 20% EtOH
[9] = Escherichia coli, ATCC10536, 45 s, dose 0.08% w/v, contact 45 s, 20% EtOH
[10] = Escherichia coli, ATCC10536, 45 s, dose 0.090 % w/v, 45 s, in 20% EtOH
[11] = Escherichia coli, ATCC10536, 45 s, dose 0.09% w/v, contact 45 s, 20% EtOH
[12] = Escherichia coli, ATCC10536, 45 s, dose 0.100 % w/v, 45 s, in 20% EtOH, read-out: Log reduction
[13] = Escherichia coli, ATCC10536, 45 s, dose 0.1% w/v, contact 45 s, 20% EtOH, read-out: Log reduction
[14] = Escherichia coli, ATCC10536, 45 s, dose 0.03% w/v, contact 45 s, 20% EtOH
[15] = Escherichia coli, ATCC10536, 45 s, dose 0.035% w/v, contact 45 s, 20% EtOH
[16] = Escherichia coli, ATCC10536, 45 s, dose 0.04% w/v, contact 45 s, 20% EtOH

Compound `OC/C=C/c1ccccc1` [Cinnamic alcohol, (2E)-3-phenyl-2-propen-1-ol] has a log reduction at 0.2 % strength [1] of 0.1, a log reduction at 0.25 % strength (Escherichia coli, ATCC10536, 45 s, dose 0.250 % w/v, 45 s, in 20% EtOH) of 0.6 and a log reduction at 0.3 % strength (Escherichia coli, ATCC10536, 45 s, dose 0.300 % w/v, 45 s, in 20% EtOH) of 1.4. For the same compound, the log reduction at 0.35 % strength (Escherichia coli, ATCC10536, 45 s, dose 0.350 % w/v, 45 s, in 20% EtOH) was 4.2 and the log reduction at 0.4 % strength (Escherichia coli, ATCC10536, 45 s, dose 0.400 % w/v, 45 s, in 20% EtOH) was 7.3.
Work on `O=c1ccc2ccccc2o1` [Coumarine, 2H-chromen-2-one] yielded a log reduction at 0.5 % strength (Escherichia coli, ATCC10536, 45 s, dose 0.500 % w/v, 45 s, in 20% EtOH) of -0.1, a log reduction at 0.6 % strength (Escherichia coli, ATCC10536, 45 s, dose 0.600 % w/v, 45 s, in 20% EtOH, read-out: Log reduction) of 0.2 and a log reduction at 0.65 % strength (Escherichia coli, ATCC10536, 45 s, dose 0.650 % w/v, 45 s, in 20% EtOH) of 0.5. The log reduction at 0.7 % strength (Escherichia coli, ATCC10536, 45 s, dose 0.700 % w/v, 45 s, in 20% EtOH) was 2.8 and the log reduction at 0.8 % strength (Escherichia coli, ATCC10536, 45 s, dose 0.800 % w/v, 45 s, in 20% EtOH) was 7.3.
`CCCCCCC1CCC(=O)O1` (centres unmarked) [Decal] showed a log reduction at 0.05 % strength [2] of 0.1, a log reduction at 0.05 % strength [3] of 0 and a log reduction at 0.06 % strength [4] of 0.7. For the same compound, the log reduction at 0.06 % strength [5] was 0.9, the log reduction at 0.07 % strength [6] was 2.4 and the log reduction at 0.07 % strength [7] was 2.8. For the same compound, the log reduction at 0.08 % strength [8] was 6.4, the log reduction at 0.08 % strength [9] was 6.1 and the log reduction at 0.09 % strength [10] was 7.1. For the same compound, the log reduction at 0.09 % strength [11] was 7.3 and the Log reduction (dose 0.050 % w/v, 45 s, in 20% EtOH) was 0.1.
For `C=CCc1ccc(O)c(OC)c1` [Eugenol F, 2-Methoxy-4-(prop-2-en-1-yl)phenol], the log reduction at 0.075 % strength (Escherichia coli, ATCC10536, 45 s, dose 0.075 % w/v, 45 s, in 20% EtOH) was 0, the log reduction at 0.09 % strength [10] was 0.3 and the log reduction at 0.1 % strength [12] was 0.9. For the same compound, the log reduction at 0.125 % strength [1] was 2.5 and the log reduction at 0.15 % strength [1] was 7.4.
Compound `CC(C)=CCC/C(C)=C/CO` [Geraniol Pur] has a log reduction at 0.04 % strength (Escherichia coli, ATCC10536, 45 s, dose 0.040 % w/v, 45 s, in 20% EtOH) of 0.4, a log reduction at 0.05 % strength [2] of 1.9 and a log reduction at 0.06 % strength [4] of 6.4. The log reduction at 0.07 % strength [6] was 7.4 and the log reduction at 0.08 % strength [8] was 7.4.
For `CC(C=O)Cc1ccc2c(c1)OCO2` (centres unmarked) [Heliopropanal, 3-(1,3-Benzodioxol-5-yl)-2-methylpropanal], the log reduction at 0.1 % strength (Escherichia coli, ATCC10536, 45 s, dose 0.100 % w/v, 45 s, in 20% EtOH) was 1, the log reduction at 0.1 % strength (Escherichia coli, ATCC10536, 45 s, dose 0.1% w/v, contact 45 s, 20% EtOH) was 0.5 and the log reduction at 0.12 % strength (Escherichia coli, ATCC10536, 45 s, dose 0.120 % w/v, 45 s, in 20% EtOH) was 2.1. It also gave a log reduction at 0.12 % strength (Escherichia coli, ATCC10536, 45 s, dose 0.12% w/v, contact 45 s, 20% EtOH) of 1.1, a log reduction at 0.14 % strength (Escherichia coli, ATCC10536, 45 s, dose 0.140 % w/v, 45 s, in 20% EtOH) of 4.3 and a log reduction at 0.14 % strength (Escherichia coli, ATCC10536, 45 s, dose 0.14% w/v, contact 45 s, 20% EtOH) of 3.1. It also gave a log reduction at 0.16 % strength (Escherichia coli, ATCC10536, 45 s, dose 0.160 % w/v, 45 s, in 20% EtOH) of 7.3, a log reduction at 0.16 % strength (Escherichia coli, ATCC10536, 45 s, dose 0.16% w/v, contact 45 s, 20% EtOH) of 7 and a log reduction at […] strength [1] of 7.3. For the same compound, the log reduction at […] strength (Escherichia coli, ATCC10536, 45 s, contact 45 s, 20% EtOH) was 7.4.
`C/C=C/c1ccc(O)c(OC)c1` [Isoeugenol, 2-Methoxy-4-(prop-1-en-1-yl)phenol] showed a log reduction at 0.05 % strength [3] of 0.1, a log reduction at 0.07 % strength [7] of 0.8 and a log reduction at 0.09 % strength [11] of 2.9. It also gave a log reduction at 0.1 % strength [13] of 4.9 and a log reduction at 0.12 % strength (Escherichia coli, ATCC10536, 45 s, dose 0.12% w/v, contact 45 s, 20% EtOH, read-out: Log reduction) of 7.4.
`CC(C)=CCC/C(C)=C\CO` [Nerol, (Z)-3,7-dimethyl-2,6-octadien-1-ol] showed a log reduction at 0.05 % strength [2] of 1.1, a log reduction at 0.05 % strength [3] of 0.1 and a log reduction at 0.06 % strength [4] of 3.2. The log reduction at 0.06 % strength [5] was 3.2, the log reduction at 0.07 % strength [6] was 6.7 and the log reduction at 0.07 % strength [7] was 7. The log reduction at 0.08 % strength [8] was 7.3, the log reduction at 0.08 % strength [9] was 7.4 and the log reduction at 0.09 % strength [10] was 7.3. For the same compound, the log reduction at 0.09 % strength [11] was 7.4.
`C=C(C)[C@@H]1CC=C(CO)CC1` [Perycorolle, (S)-(−)-(4-Isopropenyl-1-cyclohexenyl)methanol] showed a log reduction at 0.05 % strength [3] of 0, a log reduction at 0.07 % strength [7] of 1.2 and a log reduction at 0.08 % strength [9] of 3.7. It also gave a log reduction at 0.09 % strength [11] of 6 and a log reduction at 0.1 % strength [13] of 7.4.
Compound `CC(CCO)CCc1ccccc1` (centres unmarked) [Phenylhexanol, 3-methyl-5-phenyl-1-pentanol] has a log reduction at 0.02 % strength (Escherichia coli, ATCC10536, 45 s, dose 0.02% w/v, contact 45 s, 20% EtOH) of 0, a log reduction at 0.03 % strength [14] of 0 and a log reduction at 0.035 % strength [15] of 1.1. For the same compound, the log reduction at 0.04 % strength [16] was 2.4 and the log reduction at 0.05 % strength [3] was 7.2.
`CC1=CCC(C(C)(C)O)CC1` (centres unmarked) [Terpineol Ord, 2-(4-Methylcyclohex-3-en-1-yl)propan-2-ol] was tested, and the log reduction at 0.1 % strength [12] was 0.1, the log reduction at 0.11 % strength (Escherichia coli, ATCC10536, 45 s, dose 0.110 % w/v, 45 s, in 20% EtOH) was 0.3 and the log reduction at 0.125 % strength [1] was 1.3. It also gave a log reduction at 0.15 % strength [1] of 3.8 and a log reduction at 0.2 % strength [1] of 7.4.
With `CCC(C)(O)CCCC(C)C` (centres unmarked) [Tetralinol, 3,7-Dimethyl-3-octanol] the log reduction at 0.02 % strength (Escherichia coli, ATCC10536, 45 s, dose 0.02 % w/v, 45 s, in 20% EtOH) was 0.1, the log reduction at 0.025 % strength (Escherichia coli, ATCC10536, 45 s, dose 0.025 % w/v, 45 s, in 20% EtOH) was 0.6 and the log reduction at 0.025 % strength (Escherichia coli, ATCC10536, 45 s, dose 0.025% w/v, contact 45 s, 20% EtOH) was 0.7. The log reduction at 0.03 % strength (Escherichia coli, ATCC10536, 45 s, dose 0.030 % w/v, 45 s, in 20% EtOH) was 1.4, the log reduction at 0.03 % strength [14] was 2 and the log reduction at 0.035 % strength (Escherichia coli, ATCC10536, 45 s, dose 0.035 % w/v, 45 s, in 20% EtOH) was 5. The log reduction at 0.035 % strength [15] was 5.9, the log reduction at 0.04 % strength [16] was 7 and the Log reduction (dose 0.025 % w/v, 45 s, in 20% EtOH) was 0.6.
